Measurements from article PMC6007354 (2016).

Key:
[1] = tested on: tRNA (AUAUAUAUAU) (RNA, other) AUAUAUAUAU; experiment: fluorescence turn-on (443 nm); details: 10 mM HEPES pH 7.4; probe 10 uM; quantum yield 0.21; no constant
[2] = tested on: tRNA (GCGCGCGCGC) (RNA, other) GCGCGCGCGC; experiment: 1H NMR titration; details: 0.01 M HEPES pH 7.4 in D2O; shifts of probe and base protons
[3] = tested on: tRNA (AUAUAUAUAU) (RNA, other) AUAUAUAUAU; experiment: 1H NMR titration; details: 0.01 M HEPES pH 7.4 in D2O; shifts of probe and base protons
[4] = tested on: tRNA (GCGCGCGCGC) (RNA, other) GCGCGCGCGC; experiment: fluorescence turn-on (443 nm); details: 10 mM HEPES pH 7.4; probe 10 uM; quantum yield 0.22; no constant

Measured: binding

C[n+]1ccn(Cc2ccc3ccccc3c2)c1
yes: all assays above
